PMC6154583, “Optimized 4,5-Diarylimidazoles as Potent/Selective Inhibitors of Protein Kinase CK1δ and Their Structural Relation to p38α MAPK” (Molecules : A Journal of Synthetic Chemistry and Natural …, 2017)

Columns and labels:
CK1-delta = CK1-delta (Homo sapiens, UniProt P48730); assay: ProQinase 33PanQinase selectivity profiling; assay type: biochemical; settings: 100 nM, relative to control, read-out: Residual activity (%)
CAMK4 = CAMK4 (Homo sapiens, UniProt Q16566); assay: ProQinase 33PanQinase selectivity profiling; assay type: biochemical; settings: 100 nM, relative to control, read-out: Residual activity (%)
CDK9/CycT1 = CDK9/CycT1 (Homo sapiens, UniProt P50750); assay: ProQinase 33PanQinase selectivity profiling; assay type: biochemical; settings: 100 nM, relative to control, read-out: Residual activity (%)
CDK4/CycD3 = CDK4/CycD3 (Homo sapiens, UniProt P11802); assay: ProQinase 33PanQinase selectivity profiling; assay type: biochemical; settings: 100 nM, relative to control, read-out: Residual activity (%)
CDK3/CycE1 = CDK3/CycE1 (Homo sapiens, UniProt Q00526); assay: ProQinase 33PanQinase selectivity profiling; assay type: biochemical; settings: 100 nM, relative to control, read-out: Residual activity (%)
Sequence of CDK3/CycE1 (Q00526 whole entry): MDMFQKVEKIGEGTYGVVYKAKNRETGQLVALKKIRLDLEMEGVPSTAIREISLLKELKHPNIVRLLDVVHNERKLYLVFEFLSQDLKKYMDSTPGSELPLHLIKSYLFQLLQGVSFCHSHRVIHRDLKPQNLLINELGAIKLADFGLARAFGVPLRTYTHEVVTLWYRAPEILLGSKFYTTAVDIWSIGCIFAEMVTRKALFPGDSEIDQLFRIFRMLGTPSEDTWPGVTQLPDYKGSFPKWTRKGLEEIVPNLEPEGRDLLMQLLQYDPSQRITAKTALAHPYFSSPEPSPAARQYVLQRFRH
Sequence of CDK3/CycE1 (P24864 whole entry partner): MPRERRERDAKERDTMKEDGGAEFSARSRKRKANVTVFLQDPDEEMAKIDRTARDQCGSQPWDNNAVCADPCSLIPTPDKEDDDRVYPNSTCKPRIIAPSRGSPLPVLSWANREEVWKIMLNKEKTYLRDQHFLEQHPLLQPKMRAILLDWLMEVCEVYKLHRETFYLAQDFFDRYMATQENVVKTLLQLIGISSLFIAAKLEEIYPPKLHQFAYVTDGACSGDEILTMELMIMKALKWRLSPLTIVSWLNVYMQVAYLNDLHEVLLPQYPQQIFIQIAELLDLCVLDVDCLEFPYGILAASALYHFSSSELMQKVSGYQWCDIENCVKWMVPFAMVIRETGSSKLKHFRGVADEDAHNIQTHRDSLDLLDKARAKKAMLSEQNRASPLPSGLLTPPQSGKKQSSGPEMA

EIF2AK3 = biological target: T1, EIF2AK3 (Homo sapiens, UniProt Q9NZJ5); assay: ProQinase 33PanQinase selectivity profiling; assay type: biochemical; settings: 100 nM, relative to control, read-out: Residual activity (%)
T1 construct: purchased ProQinase GmbH
T1 sequence (Q9NZJ5 30-1116): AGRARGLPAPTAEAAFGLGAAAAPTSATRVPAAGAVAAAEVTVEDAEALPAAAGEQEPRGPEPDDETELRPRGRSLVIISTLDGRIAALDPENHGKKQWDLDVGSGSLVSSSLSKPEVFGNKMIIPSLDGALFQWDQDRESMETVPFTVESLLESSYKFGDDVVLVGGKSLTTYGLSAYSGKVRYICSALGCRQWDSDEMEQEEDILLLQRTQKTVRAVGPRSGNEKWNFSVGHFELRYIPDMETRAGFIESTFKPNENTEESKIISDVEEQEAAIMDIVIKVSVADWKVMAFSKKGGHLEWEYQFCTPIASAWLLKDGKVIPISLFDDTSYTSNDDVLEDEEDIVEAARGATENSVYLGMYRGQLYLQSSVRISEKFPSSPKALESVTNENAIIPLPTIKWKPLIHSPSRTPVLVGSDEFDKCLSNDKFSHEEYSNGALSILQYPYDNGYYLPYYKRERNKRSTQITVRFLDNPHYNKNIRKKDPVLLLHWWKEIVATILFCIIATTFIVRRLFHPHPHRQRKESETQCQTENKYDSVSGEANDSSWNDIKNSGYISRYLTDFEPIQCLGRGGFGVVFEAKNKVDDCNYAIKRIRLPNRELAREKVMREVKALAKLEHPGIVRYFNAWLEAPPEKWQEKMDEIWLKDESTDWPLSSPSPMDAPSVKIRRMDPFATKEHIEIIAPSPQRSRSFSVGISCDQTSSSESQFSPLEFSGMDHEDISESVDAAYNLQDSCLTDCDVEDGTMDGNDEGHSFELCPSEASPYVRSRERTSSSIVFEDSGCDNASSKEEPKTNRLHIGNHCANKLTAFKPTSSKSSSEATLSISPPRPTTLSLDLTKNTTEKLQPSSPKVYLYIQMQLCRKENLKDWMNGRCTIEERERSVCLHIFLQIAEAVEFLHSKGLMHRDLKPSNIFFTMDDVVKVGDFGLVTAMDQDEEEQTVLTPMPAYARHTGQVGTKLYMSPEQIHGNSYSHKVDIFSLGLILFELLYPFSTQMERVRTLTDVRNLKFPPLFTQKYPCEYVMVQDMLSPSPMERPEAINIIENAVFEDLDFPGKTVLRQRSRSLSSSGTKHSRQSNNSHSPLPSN

DCAMKL2 = DCAMKL2 (Homo sapiens, UniProt Q8N568); assay: ProQinase 33PanQinase selectivity profiling; assay type: biochemical; settings: 100 nM, relative to control, read-out: Residual activity (%)
[1] = tested on: panel of 321 protein kinases; assay: Selectivity profiling in a panel of 321 protein kinases (ProQinase); assay type: biochemical; settings: 100 nM
AKT1 aa106-480 = biological target: T2, AKT1 aa106-480 (Homo sapiens, UniProt P31749); assay: ProQinase 33PanQinase selectivity profiling; assay type: biochemical; settings: 100 nM, relative to control, read-out: Residual activity (%)
T2 construct: AKT1 aa106-480; purchased ProQinase GmbH (Freiburg, Germany)

ACV-R2A = biological target: T3, ACV-R2A (Homo sapiens, UniProt P27037); assay: ProQinase 33PanQinase selectivity profiling; assay type: biochemical; settings: 100 nM, relative to control, read-out: Residual activity (%)
T3 construct: purchased ProQinase GmbH (Freiburg, Germany)

CHK1 = CHK1 (Homo sapiens, UniProt O14757); assay: ProQinase 33PanQinase selectivity profiling; assay type: biochemical; settings: 100 nM, relative to control, read-out: Residual activity (%)
BRK = biological target: T4, BRK (Homo sapiens, UniProt Q13882); assay: ProQinase 33PanQinase selectivity profiling; assay type: biochemical; settings: 100 nM, relative to control, read-out: Residual activity (%)
T4 construct: purchased ProQinase GmbH

CSK = CSK (Homo sapiens, UniProt P41240); assay: ProQinase 33PanQinase selectivity profiling; assay type: biochemical; settings: 100 nM, relative to control, read-out: Residual activity (%)
CAMK2D = CAMK2D (Homo sapiens, UniProt Q13557); assay: ProQinase 33PanQinase selectivity profiling; assay type: biochemical; settings: 100 nM, relative to control, read-out: Residual activity (%)
CDK3/CycC = CDK3/CycC (Homo sapiens, UniProt Q00526); assay: ProQinase 33PanQinase selectivity profiling; assay type: biochemical; settings: 100 nM, relative to control, read-out: Residual activity (%)
Sequence of CDK3/CycC (Q00526 whole entry): as the sequence (Q00526 whole entry) above
Sequence of CDK3/CycC (P24863 whole entry partner): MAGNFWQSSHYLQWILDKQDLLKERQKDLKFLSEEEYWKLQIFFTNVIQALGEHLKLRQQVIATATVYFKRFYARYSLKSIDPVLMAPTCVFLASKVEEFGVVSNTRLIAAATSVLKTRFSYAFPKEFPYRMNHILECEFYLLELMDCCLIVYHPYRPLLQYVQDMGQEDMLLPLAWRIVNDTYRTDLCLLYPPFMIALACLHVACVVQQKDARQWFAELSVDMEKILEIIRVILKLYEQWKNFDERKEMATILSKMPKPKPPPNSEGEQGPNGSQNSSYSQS

CDK4/CycD1 = CDK4/CycD1 (Homo sapiens, UniProt P11802); assay: ProQinase 33PanQinase selectivity profiling; assay type: biochemical; settings: 100 nM, relative to control, read-out: Residual activity (%)
CK1-alpha1 = CK1-alpha1 (Homo sapiens, UniProt P48729); assay: ProQinase 33PanQinase selectivity profiling; assay type: biochemical; settings: 100 nM, relative to control, read-out: Residual activity (%)
Sequence of CK1-alpha1 (P48729 whole entry): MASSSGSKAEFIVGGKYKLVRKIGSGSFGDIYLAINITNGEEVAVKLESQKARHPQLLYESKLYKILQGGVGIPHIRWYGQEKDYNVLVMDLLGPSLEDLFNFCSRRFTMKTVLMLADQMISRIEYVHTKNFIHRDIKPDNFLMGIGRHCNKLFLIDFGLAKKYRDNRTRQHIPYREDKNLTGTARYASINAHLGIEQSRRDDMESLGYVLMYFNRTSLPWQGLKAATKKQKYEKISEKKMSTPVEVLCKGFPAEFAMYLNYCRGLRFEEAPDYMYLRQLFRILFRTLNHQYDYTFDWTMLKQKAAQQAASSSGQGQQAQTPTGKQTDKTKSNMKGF

DYRK1B = DYRK1B (Homo sapiens, UniProt Q9Y463); assay: ProQinase 33PanQinase selectivity profiling; assay type: biochemical; settings: 100 nM, relative to control, read-out: Residual activity (%)
CK1-gamma2 = CK1-gamma2 (Homo sapiens, UniProt P78368); assay: ProQinase 33PanQinase selectivity profiling; assay type: biochemical; settings: 100 nM, relative to control
Sequence of CK1-gamma2 (P78368 whole entry): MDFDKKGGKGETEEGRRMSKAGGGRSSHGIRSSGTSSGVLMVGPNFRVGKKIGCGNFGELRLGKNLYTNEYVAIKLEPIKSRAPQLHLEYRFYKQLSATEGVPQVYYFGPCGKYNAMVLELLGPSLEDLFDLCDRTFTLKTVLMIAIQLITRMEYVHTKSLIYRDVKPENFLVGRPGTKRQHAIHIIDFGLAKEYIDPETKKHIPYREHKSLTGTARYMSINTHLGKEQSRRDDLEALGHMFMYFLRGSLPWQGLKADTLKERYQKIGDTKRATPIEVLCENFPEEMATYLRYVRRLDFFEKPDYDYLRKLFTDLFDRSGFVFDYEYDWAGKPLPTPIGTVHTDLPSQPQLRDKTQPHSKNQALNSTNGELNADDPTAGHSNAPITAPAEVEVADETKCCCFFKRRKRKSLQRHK

DYRK4 = DYRK4 (Homo sapiens, UniProt Q9NR20); assay: biochemical; settings: read-out: Residual activity (%)
BRSK2 = BRSK2 (Homo sapiens, UniProt Q8IWQ3); assay: ProQinase 33PanQinase selectivity profiling; assay type: biochemical; settings: 100 nM, relative to control, read-out: Residual activity (%)
ALK (GST-HIS-tag) = biological target: T5, ALK (GST-HIS-tag) (Homo sapiens, UniProt Q9UM73); assay: ProQinase 33PanQinase selectivity profiling; assay type: biochemical; settings: 100 nM, relative to control, read-out: Residual activity (%)
T5 construct: GST; HIS; purchased ProQinase GmbH (Freiburg, Germany)

CK1-gamma1 = CK1-gamma1 (Homo sapiens, UniProt Q9HCP0); assay: ProQinase 33PanQinase selectivity profiling; assay type: biochemical; settings: 100 nM, relative to control
Sequence of CK1-gamma1 (Q9HCP0 whole entry): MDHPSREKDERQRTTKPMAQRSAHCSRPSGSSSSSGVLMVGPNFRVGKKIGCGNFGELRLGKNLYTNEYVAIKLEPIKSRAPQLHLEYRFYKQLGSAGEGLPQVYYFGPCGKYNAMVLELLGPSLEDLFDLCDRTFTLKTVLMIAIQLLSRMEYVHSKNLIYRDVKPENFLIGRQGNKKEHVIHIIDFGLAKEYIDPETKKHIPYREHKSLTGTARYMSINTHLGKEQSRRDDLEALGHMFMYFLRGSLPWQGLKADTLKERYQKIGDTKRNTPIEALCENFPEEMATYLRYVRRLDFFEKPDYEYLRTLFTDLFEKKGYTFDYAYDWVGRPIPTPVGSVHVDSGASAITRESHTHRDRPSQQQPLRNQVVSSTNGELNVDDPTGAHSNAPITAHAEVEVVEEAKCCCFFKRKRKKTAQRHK

DAPK2 = DAPK2 (Homo sapiens, UniProt Q9UIK4); assay: ProQinase 33PanQinase selectivity profiling; assay type: biochemical; settings: 100 nM, relative to control, read-out: Residual activity (%)
Sequence of DAPK2 (Q9UIK4 whole entry): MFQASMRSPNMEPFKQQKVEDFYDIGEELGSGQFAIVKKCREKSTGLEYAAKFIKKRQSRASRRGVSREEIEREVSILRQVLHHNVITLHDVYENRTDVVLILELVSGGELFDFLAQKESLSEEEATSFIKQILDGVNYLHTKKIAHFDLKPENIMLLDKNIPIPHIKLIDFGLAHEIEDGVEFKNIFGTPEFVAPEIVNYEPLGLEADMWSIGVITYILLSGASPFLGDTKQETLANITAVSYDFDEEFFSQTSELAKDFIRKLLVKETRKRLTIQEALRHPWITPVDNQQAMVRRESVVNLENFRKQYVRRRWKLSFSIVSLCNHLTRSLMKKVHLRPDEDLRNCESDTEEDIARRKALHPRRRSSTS

DYRK3 = DYRK3 (Homo sapiens, UniProt O43781); assay: ProQinase 33PanQinase selectivity profiling; assay type: biochemical; settings: 100 nM, relative to control, read-out: Residual activity (%)
EPHA2 = EPHA2 (Homo sapiens, UniProt P29317); assay: ProQinase 33PanQinase selectivity profiling; assay type: biochemical; settings: 100 nM, relative to control, read-out: Residual activity (%)
EEF2K = EEF2K (Homo sapiens, UniProt O00418); assay: ProQinase 33PanQinase selectivity profiling; assay type: biochemical; settings: 100 nM, relative to control, read-out: Residual activity (%)
CAMK2A = CAMK2A (Homo sapiens, UniProt Q9UQM7); assay: ProQinase 33PanQinase selectivity profiling; assay type: biochemical; settings: 100 nM, relative to control, read-out: Residual activity (%)
DYRK2 = DYRK2 (Homo sapiens, UniProt Q92630); assay: ProQinase 33PanQinase selectivity profiling; assay type: biochemical; settings: 100 nM, relative to control, read-out: Residual activity (%)
ACK1 = biological target: T6, ACK1 (Homo sapiens, UniProt Q07912); assay: ProQinase 33PanQinase selectivity profiling; assay type: biochemical; settings: 100 nM, relative to control, read-out: Residual activity (%)
T6 construct: purchased ProQinase GmbH (Freiburg, Germany)

DYRK1A = DYRK1A (Homo sapiens, UniProt Q13627); assay: ProQinase 33PanQinase selectivity profiling; assay type: biochemical; settings: 100 nM, relative to control, read-out: Residual activity (%)
Aurora-A = Aurora-A (Homo sapiens, UniProt O14965); assay: ProQinase 33PanQinase selectivity profiling; assay type: biochemical; settings: 100 nM, relative to control, read-out: Residual activity (%)
Sequence of Aurora-A (O14965 whole entry): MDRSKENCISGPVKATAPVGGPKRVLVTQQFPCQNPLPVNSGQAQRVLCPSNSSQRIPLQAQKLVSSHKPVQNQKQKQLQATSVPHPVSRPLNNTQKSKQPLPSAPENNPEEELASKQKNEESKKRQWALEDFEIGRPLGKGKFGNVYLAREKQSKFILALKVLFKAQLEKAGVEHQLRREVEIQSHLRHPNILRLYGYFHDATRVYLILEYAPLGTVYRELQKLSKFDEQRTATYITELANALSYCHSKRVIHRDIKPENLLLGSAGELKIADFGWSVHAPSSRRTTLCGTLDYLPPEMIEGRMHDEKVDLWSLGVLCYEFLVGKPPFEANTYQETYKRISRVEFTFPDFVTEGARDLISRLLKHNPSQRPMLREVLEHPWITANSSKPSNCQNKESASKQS

CDK5/p25NCK = CDK5/p25NCK (Homo sapiens, UniProt Q00535); assay: ProQinase 33PanQinase selectivity profiling; assay type: biochemical; settings: 100 nM, relative to control, read-out: Residual activity (%)
EPHA3 = EPHA3 (Homo sapiens, UniProt P29320); assay: ProQinase 33PanQinase selectivity profiling; assay type: biochemical; settings: 100 nM, relative to control, read-out: Residual activity (%)
CDK1/CycE1 = CDK1/CycE1 (Homo sapiens, UniProt P06493); assay: ProQinase 33PanQinase selectivity profiling; assay type: biochemical; settings: 100 nM, relative to control, read-out: Residual activity (%)
BRSK1 = BRSK1 (Homo sapiens, UniProt Q8TDC3); assay: ProQinase 33PanQinase selectivity profiling; assay type: biochemical; settings: 100 nM, relative to control, read-out: Residual activity (%)
BMX = biological target: T7, BMX (Homo sapiens, UniProt P51813); assay: ProQinase 33PanQinase selectivity profiling; assay type: biochemical; settings: 100 nM, relative to control, read-out: Residual activity (%)
T7 construct: purchased ProQinase GmbH

Aurora-C = biological target: T8, Aurora-C (Homo sapiens, UniProt Q9UQB9); assay: ProQinase 33PanQinase selectivity profiling; assay type: biochemical; settings: 100 nM, relative to control, read-out: Residual activity (%)
T8 construct: purchased ProQinase GmbH (Freiburg, Germany)

CAMK2G = CAMK2G (Homo sapiens, UniProt Q13555); assay: ProQinase 33PanQinase selectivity profiling; assay type: biochemical; settings: 100 nM, relative to control, read-out: Residual activity (%)
CLK2 = CLK2 (Homo sapiens, UniProt P49760); assay: ProQinase 33PanQinase selectivity profiling; assay type: biochemical; settings: 100 nM, relative to control, read-out: Residual activity (%)
BMPR1A = biological target: T9, BMPR1A (Homo sapiens, UniProt P36894); assay: ProQinase 33PanQinase selectivity profiling; assay type: biochemical; settings: 100 nM, relative to control, read-out: Residual activity (%)
T9 construct: purchased ProQinase GmbH

BLK = BLK (Homo sapiens, UniProt P51451); assay: ProQinase 33PanQinase selectivity profiling; assay type: biochemical; settings: 100 nM, relative to control, read-out: Residual activity (%)
Sequence of BLK (P51451 whole entry): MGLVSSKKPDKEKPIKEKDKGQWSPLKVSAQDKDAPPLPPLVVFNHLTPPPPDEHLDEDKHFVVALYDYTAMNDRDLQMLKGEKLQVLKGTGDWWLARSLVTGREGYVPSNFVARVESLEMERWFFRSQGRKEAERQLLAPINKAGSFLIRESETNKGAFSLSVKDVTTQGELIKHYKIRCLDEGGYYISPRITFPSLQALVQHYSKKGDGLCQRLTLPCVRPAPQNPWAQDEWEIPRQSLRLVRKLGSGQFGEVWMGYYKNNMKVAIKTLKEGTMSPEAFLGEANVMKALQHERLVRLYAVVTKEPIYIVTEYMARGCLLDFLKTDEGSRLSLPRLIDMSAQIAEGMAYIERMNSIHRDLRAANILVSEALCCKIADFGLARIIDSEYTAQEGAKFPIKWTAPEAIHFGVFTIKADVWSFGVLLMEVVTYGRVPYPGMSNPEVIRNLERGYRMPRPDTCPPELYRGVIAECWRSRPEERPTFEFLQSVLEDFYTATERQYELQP

[2] = read-out: Residual activity (%)

COc1ccc(OC)c(CCC(=O)Nc2cc(-c3nc(SC)[nH]c3-c3ccc(F)cc3)ccn2)c1 [11b, 3-(2,5-Dimethoxyphenyl)-N-(4-(5-(4-fluorophenyl)-2-(methylthio)-1H-imidazol-4-yl)-pyridin-2-yl)-propanamide]
remaining activity at 0.1 µM (CK1-delta): 3%
remaining activity at 0.1 µM (CAMK4): 95%
remaining activity at 0.1 µM (CDK9/CycT1): 93%
remaining activity at 0.1 µM (CDK4/CycD3): 88%
remaining activity at 0.1 µM (CDK3/CycE1): 98%
remaining activity at 0.1 µM (EIF2AK3): 91%
remaining activity at 0.1 µM (DCAMKL2): 94%
selectivity score S(50) ([1]; 321 protein kinases, calculated in accordance to Karaman et al.): 0.027
additional kinases with residual activities less than 50% apart from CK1δ and CK1ε ([1]; panel of 321 protein kinases): six
remaining activity at 0.1 µM (AKT1 aa106-480): 90%
remaining activity at 0.1 µM (ACV-R2A): 98%
remaining activity at 0.1 µM (CHK1): 92%
remaining activity at 0.1 µM (BRK): 98%
remaining activity at 0.1 µM (CSK): 101%
remaining activity at 0.1 µM (CAMK2D): 96%
remaining activity at 0.1 µM (CDK3/CycC): 95%
remaining activity at 0.1 µM (CDK4/CycD1): 98%
remaining activity at 0.1 µM (CK1-alpha1): 26%
remaining activity at 0.1 µM (DYRK1B): 101%
Residual activity (%) (CK1-gamma2): unaffected
remaining activity at 0.1 µM (CK1-gamma2; [2]): 91%
remaining activity at 0.1 µM (DYRK4): 100%
remaining activity at 0.1 µM (BRSK2): 105%
remaining activity at 0.1 µM (ALK (GST-HIS-tag)): 114%
Residual activity (%) (CK1-gamma1): unaffected
remaining activity at 0.1 µM (CK1-gamma1; [2]): 100%
remaining activity at 0.1 µM (DAPK2): 95%
remaining activity at 0.1 µM (DYRK3): 97%
remaining activity at 0.1 µM (EPHA2): 95%
remaining activity at 0.1 µM (EEF2K): 84%
remaining activity at 0.1 µM (CAMK2A): 95%
remaining activity at 0.1 µM (DYRK2): 99%
remaining activity at 0.1 µM (ACK1): 96%
remaining activity at 0.1 µM (DYRK1A): 96%
remaining activity at 0.1 µM (Aurora-A): 93%
remaining activity at 0.1 µM (CDK5/p25NCK): 117%
remaining activity at 0.1 µM (EPHA3): 97%
remaining activity at 0.1 µM (CDK1/CycE1): 97%
remaining activity at 0.1 µM (BRSK1): 89%
remaining activity at 0.1 µM (BMX): 98%
remaining activity at 0.1 µM (Aurora-C): 93%
remaining activity at 0.1 µM (CAMK2G): 105%
remaining activity at 0.1 µM (CLK2): 101%
remaining activity at 0.1 µM (BMPR1A): 102%
remaining activity at 0.1 µM (BLK): 77%
